# Assay results as given in patent publication US20090298820A1, “3-SUBSTITUTED-1H-PYRROLO[2,3-B]PYRIDINE AND 3-SUBSTITUTED-1H-PYRROLO[3,2-B]PYRIDINE COMPOUNDS, THEIR USE AS MTOR KINASE AND PI3 KINASE INHIBITORS, AND THEIR SYNTHESES” (Wyeth, priority 2008, published 2009).
# Key:
# Type in all cases: biochemical
# PI3Kγ = PI3Kγ (Homo sapiens, UniProt P48736); assay: PI3K-gamma fluorescence polarization assay; settings: read-out: PI3Kγ Median IC50
# mTOR = mTOR (Homo sapiens, UniProt P42345); assay: mTOR enzyme assay (DELFIA format, His6-S6K substrate); settings: read-out: mTOR Kinase Median IC50
# PI3Kα = PI3Kα (Homo sapiens, UniProt P42336); assay: PI3K-alpha fluorescence polarization assay; settings: read-out: PI3Kα Median IC50
# Chain of PI3Kα (P42336 whole entry, species assumed): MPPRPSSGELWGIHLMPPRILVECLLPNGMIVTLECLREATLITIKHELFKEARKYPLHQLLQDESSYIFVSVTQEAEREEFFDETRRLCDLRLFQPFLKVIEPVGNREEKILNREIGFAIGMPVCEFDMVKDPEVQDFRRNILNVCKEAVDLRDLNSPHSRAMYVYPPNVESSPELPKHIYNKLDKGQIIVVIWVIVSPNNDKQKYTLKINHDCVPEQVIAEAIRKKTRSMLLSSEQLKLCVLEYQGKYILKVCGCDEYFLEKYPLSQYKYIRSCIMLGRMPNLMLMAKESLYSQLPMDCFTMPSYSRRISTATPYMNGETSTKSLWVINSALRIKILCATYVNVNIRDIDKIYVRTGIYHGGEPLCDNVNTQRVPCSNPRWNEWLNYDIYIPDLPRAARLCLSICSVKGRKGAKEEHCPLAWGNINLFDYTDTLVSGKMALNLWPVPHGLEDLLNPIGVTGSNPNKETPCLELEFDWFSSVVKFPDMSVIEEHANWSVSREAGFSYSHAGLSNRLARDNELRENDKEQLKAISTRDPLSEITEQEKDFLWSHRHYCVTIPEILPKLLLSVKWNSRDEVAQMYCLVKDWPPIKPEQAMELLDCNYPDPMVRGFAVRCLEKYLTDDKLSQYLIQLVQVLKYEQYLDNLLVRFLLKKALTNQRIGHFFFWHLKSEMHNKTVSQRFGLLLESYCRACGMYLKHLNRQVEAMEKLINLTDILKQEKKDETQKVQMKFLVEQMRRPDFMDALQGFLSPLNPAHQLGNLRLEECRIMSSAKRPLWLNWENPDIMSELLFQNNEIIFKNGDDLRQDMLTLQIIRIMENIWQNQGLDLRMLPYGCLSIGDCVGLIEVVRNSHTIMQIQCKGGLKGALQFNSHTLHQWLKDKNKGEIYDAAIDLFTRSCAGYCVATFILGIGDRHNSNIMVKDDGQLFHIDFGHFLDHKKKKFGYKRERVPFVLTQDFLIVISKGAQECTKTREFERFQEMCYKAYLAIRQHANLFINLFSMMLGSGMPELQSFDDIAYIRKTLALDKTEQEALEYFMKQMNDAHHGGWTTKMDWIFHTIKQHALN
# Chain of PI3Kα (P27986 whole entry partner, species assumed): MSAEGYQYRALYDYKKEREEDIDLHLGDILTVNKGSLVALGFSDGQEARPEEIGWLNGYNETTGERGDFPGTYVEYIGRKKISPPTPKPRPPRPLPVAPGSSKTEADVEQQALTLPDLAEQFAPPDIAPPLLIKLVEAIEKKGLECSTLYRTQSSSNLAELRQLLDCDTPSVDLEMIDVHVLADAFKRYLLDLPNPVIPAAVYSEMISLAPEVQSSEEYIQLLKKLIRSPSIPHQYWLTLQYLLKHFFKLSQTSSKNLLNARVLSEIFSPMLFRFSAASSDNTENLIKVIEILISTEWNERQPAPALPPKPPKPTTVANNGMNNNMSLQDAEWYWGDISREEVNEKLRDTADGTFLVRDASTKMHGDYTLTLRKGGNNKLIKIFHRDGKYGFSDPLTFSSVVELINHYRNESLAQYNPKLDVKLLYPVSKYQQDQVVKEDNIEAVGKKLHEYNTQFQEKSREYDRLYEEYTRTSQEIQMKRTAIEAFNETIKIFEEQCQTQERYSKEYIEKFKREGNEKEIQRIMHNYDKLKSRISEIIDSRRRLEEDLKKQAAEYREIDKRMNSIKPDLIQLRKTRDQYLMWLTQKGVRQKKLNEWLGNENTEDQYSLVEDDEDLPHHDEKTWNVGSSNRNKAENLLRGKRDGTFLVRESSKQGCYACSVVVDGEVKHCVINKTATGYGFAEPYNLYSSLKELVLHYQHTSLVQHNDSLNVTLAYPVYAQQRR
# Chain of PI3Kγ (P48736 whole entry, species assumed): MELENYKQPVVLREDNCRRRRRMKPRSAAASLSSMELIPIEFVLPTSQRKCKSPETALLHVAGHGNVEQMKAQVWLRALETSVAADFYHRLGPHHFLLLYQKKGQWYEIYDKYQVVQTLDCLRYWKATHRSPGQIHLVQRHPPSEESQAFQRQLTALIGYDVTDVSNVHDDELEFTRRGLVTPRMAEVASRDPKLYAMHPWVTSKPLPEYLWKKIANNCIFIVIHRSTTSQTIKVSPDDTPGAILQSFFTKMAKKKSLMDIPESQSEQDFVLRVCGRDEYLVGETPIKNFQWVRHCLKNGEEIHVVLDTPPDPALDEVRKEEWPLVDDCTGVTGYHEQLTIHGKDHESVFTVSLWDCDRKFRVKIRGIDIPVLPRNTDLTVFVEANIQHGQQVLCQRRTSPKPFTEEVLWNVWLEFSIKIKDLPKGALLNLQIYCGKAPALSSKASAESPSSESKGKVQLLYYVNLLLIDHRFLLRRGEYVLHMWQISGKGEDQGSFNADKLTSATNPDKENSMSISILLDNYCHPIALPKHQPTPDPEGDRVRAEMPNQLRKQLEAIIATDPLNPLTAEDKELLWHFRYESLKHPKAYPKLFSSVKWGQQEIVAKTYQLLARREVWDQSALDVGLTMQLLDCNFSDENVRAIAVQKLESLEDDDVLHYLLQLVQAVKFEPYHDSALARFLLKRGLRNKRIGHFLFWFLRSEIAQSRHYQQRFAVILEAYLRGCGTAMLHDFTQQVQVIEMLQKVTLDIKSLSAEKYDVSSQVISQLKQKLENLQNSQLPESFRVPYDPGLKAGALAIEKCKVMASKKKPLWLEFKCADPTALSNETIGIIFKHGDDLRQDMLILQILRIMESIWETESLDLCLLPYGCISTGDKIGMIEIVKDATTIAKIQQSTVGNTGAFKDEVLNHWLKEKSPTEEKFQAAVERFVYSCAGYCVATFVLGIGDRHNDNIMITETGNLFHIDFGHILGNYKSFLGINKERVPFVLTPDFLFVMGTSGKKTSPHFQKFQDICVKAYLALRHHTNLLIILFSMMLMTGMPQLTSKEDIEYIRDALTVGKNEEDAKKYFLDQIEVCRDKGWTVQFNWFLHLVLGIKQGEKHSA
IC50 (PI3Kγ) [nM],IC50 (mTOR) [nM],IC50 (PI3Kα) [nM],Compound
51,0.4,11,"CC(=O)Nc1ccc(-c2ccnc3c2c(/C=C2\Oc4cc(O)cc(O)c4C2=O)cn3C)cc1 [Compound 35, N-(4-{3-[(Z)-(4,6-dihydroxy-3-oxo-1-benzofuran-2(3H)-ylidene)methyl]-1-methyl-1H-pyrrolo[2,3-b]pyridin-4-yl}phenyl)acetamide]"
348,71,275,"Cn1cc(/C=C2\Oc3ccc(NC(=O)Nc4cccnc4)cc3C2=O)c2c(N3CCOCC3)ccnc21 [Compound 185, 1-{(2Z)-2-[(1-methyl-4-morpholin-4-yl-1H-pyrrolo[2,3-b]pyridin-3-yl)methylidene]-3-oxo-2,3-dihydro-1-benzofuran-5-yl}-3-pyridin-3-ylurea]"
1730,10,5620,"Cn1cc(C=C2Oc3ccc(NC(=O)Nc4cccnc4)cc3C2=O)c2c(N3CCC(C(=O)N4CC=CC4)CC3)ccnc21 [Compound 204, 1-[2-({4-[4-(2,5-dihydro-1H-pyrrol-1-ylcarbonyl)piperidin-1-yl]-1-methyl-1H-pyrrolo[2,3-b]pyridin-3-yl}methylidene)-3-oxo-2,3-dihydro-1-benzofuran-5-yl]-3-pyridin-3-ylurea]"
321,0.7,13,"Cn1cc(/C=C2\Oc3cc(O)cc(O)c3C2=O)c2c(-c3cccc(C(=O)Nc4ccc(F)cc4)c3)ccnc21 [Compound 97, 3-{3-[(Z)-(4,6-dihydroxy-3-oxo-1-benzofuran-2(3H)-ylidene)methyl]-1-methyl-1H-pyrrolo[2,3-b]pyridin-4-yl}-N-(4-fluorophenyl)benzamide]"
84,0.5,85,"CN(C)c1ccc(-c2ccnc3c2c(/C=C2\Oc4cc(O)cc(O)c4C2=O)cn3C)cc1 [Compound 25, (2Z)-2-({4-[4-(dimethylamino)phenyl]-1-methyl-1H-pyrrolo[2,3-b]pyridin-3-yl}methylene)-4,6-dihydroxy-1-benzofuran-3(2H)-one]"
184,2.2,53,"Cn1cc(/C=C2\Oc3cccc(O)c3C2=O)c2c(N3CCOCC3)ccnc21 [Compound 48, (2Z)-4-hydroxy-2-[(1-methyl-4-morpholin-4-yl-1H-pyrrolo[2,3-b]pyridin-3-yl)methylene]-1-benzofuran-3(2H)-one]"
234,4.3,140,"CN(CCO)C(=O)c1ccc(-c2ccnc3c2c(/C=C2\Oc4cccc(O)c4C2=O)cn3C)cc1 [Compound 195, N-(2-hydroxyethyl)-4-{3-[(Z)-(4-hydroxy-3-oxo-1-benzofuran-2(3H)-ylidene)methyl]-1-methyl-1H-pyrrolo[2,3-b]pyridin-4-yl}-N-methylbenzamide]"
38,0.2,6,"Cn1cc(/C=C2\Oc3cc(O)cc(O)c3C2=O)c2c(-c3ccc(C(N)=O)cc3)ccnc21 [Compound 34, 4-{3-[(Z)-(4,6-dihydroxy-3-oxo-1-benzofuran-2(3H)-ylidene)methyl]-1-methyl-1H-pyrrolo[2,3-b]pyridin-4-yl}benzamide]"

Compound,IC50 (PI3Kγ) [nM],IC50 (mTOR) [nM],IC50 (PI3Kα) [nM]
"Cn1cc(/C=C2\Oc3cccc(O)c3C2=O)c2c(-c3ccc(C(=O)N4CCN(CCO)CC4)cc3)ccnc21 [Compound 146, (2Z)-4-hydroxy-2-{[4-(4-{[4-(2-hydroxyethyl)piperazin-1-yl]carbonyl}phenyl)-1-methyl-1H-pyrrolo[2,3-b]pyridin-3-yl]methylidene}-1-benzofuran-3(2H)-one]",101,0.4,100
"1-cyclopropyl-3-[(2Z)-2-{[1-methyl-4-(8-oxa-3-azabicyclo[3.2.1]oct-3-yl)-1H-pyrrolo[2,3-b]pyridin-3-yl]methylidene}-3-oxo-2,3-dihydro-1-benzofuran-5-yl]urea [Compound 237]",2130,23,289
